# Measured values from patent US5281603A, “Angiotensin II receptor blocking 2,3,6 substituted quinazolinones” (American Cyanamid Company, priority 1993, dated 1994).
# “And” between values parts separate entries of the source, which are not always exact repeats. Equal values may be shown once.
# Tested on: Angiotensin II vasopressor response
# Test: AII challenge: antagonism of angiotensin II vasopressor response in conscious spontaneously hypertensive rats
# Format: in vivo, rat (Male Okamoto-Aoki SHR)
# Conditions: 3 mg/kg I.V.; for % Inhibition / Average Change: SHR n=2; for Response After AII / Change / Control Before AII: individual SHR
# Text: By administering a compound of this invention to a rat, and then challenging with angiotensin II, a blockage of the vasopressor response is realized.
# Conscious Male Okamoto-Aoki SHR, 16-20 weeks old, weighing approximately 330 g are purchased from Charles River Labs (Wilmington, Mass.). Conscious rats are restrained in a supine position with elastic tape. The area at the base of the tail is locally anesthetized by subcutaneous infiltration with 2% procaine. The ventral caudal artery and vein are isolated, and a cannula made of polyethylene (PE) 10-20 tubing (fused together by heat) is passed into the lower abdominal aorta and vena cava, respectively. The cannula is secured, heparinized (1,000 I.U./ml), sealed and the wound is closed. The animals are placed in plastic restraining cages in an upright position. The cannula is attached to a Statham P23Db pressure transducer, and pulsatile blood pressure is recorded to 10-15 minutes with a Gould Brush recorder. (Chan et al., (Drug Development Res., 18:75-94, 1989).
# Angiotensin II (human sequence, Sigma Chem. Co., St. […] Then a test compound, vehicle or a known angiotensin II antagonist is administered i.v., i.p. or orally to each set of rats. The two doses of angiotensin II are given to each rat again at 30, 60, 90, 120, 180, 240 and 300 minutes post dosing the compound or vehicle. The vasopressor response of angiotensin II is measured for the increase in systolic blood pressure in mmHg. The percentage of antagonism or blockade of the vasopressor response of angiotensin II by a compound is calculated using the vasopressor response (increase in systolic blood pressure) of angiotensin II of each rat predosing the compound as 100%. A compound is considered active if at 30 mg/kg i.v. it antagonized at least 50% of the response.
# [1] = AII 0.01 mcg/kg IV (so in the source), 60 min post dose
# [2] = AII 0.01 mcg/kg IV (so in the source), 90 min post dose
# [3] = AII 0.05 mcg/kg IV, 30 min post dose
# [4] = AII 0.05 mcg/kg IV, 60 min post dose
# [5] = AII 0.05 mcg/kg IV, 90 min post dose
# [6] = AII 0.05 mcg/kg IV, 120 min post dose
# [7] = AII 0.05 mcg/kg IV, 180 min post dose
# [8] = AII 0.05 mcg/kg IV, 240 min post dose
# [9] = AII 0.05 mcg/kg IV, 300 min post dose
# [10] = AII 0.1 mcg/kg IV, 30 min post dose
# [11] = AII 0.1 mcg/kg IV, 120 min post dose
# [12] = AII 0.1 mcg/kg IV, 180 min post dose
# [13] = AII 0.1 mcg/kg IV, 240 min post dose
# [14] = AII 0.1 mcg/kg IV, 300 min post dose
# [15] = AII 0.01 mcg/kg IV (so in the source), 60 min post dose, 3 mg/kg
# [16] = AII 0.01 mcg/kg IV (so in the source), 90 min post dose, 3 mg/kg
# [17] = AII 0.05 mcg/kg IV, 30 min post dose, 3 mg/kg
# [18] = AII 0.05 mcg/kg IV, 60 min post dose, 3 mg/kg
# [19] = AII 0.05 mcg/kg IV, 90 min post dose, 3 mg/kg
# [20] = AII 0.05 mcg/kg IV, 120 min post dose, 3 mg/kg
# [21] = AII 0.05 mcg/kg IV, 180 min post dose, 3 mg/kg
# [22] = AII 0.05 mcg/kg IV, 240 min post dose, 3 mg/kg
# [23] = AII 0.05 mcg/kg IV, 300 min post dose, 3 mg/kg
# [24] = AII 0.1 mcg/kg IV, 30 min post dose, 3 mg/kg
# [25] = AII 0.1 mcg/kg IV, 120 min post dose, 3 mg/kg
# [26] = AII 0.1 mcg/kg IV, 180 min post dose, 3 mg/kg
# [27] = AII 0.1 mcg/kg IV, 240 min post dose, 3 mg/kg
# [28] = AII 0.1 mcg/kg IV, 300 min post dose, 3 mg/kg
structure (smiles),measurement,setting,value
"CCCCc1nc2ccc([C@@]3(C)NN[C@@H]4C(=O)N(C)C(=O)[C@@H]43)cc2c(=O)n1Cc1ccc(-c2ccccc2-c2nnn[nH]2)cc1 (relative stereo) [Example 10, (3-alpha,3aalpha,6aalpha)-3-[2-butyl-3,4-dihydro-4-oxo-3-[[2'-(1H-tetrazol-5-yl)-[1,1'-biphenyl]-4-yl]methyl]-6-quinazolinyl]-2,3,3a,6a-tetrahydro-3,5-dimethyl-pyrrolo[3,4-c]pyrazole-4,6(1H,5H)-dione]",% Inhibition,[1],53%
same,Average Change,[1],22.5 mmHg
same,% Inhibition,[2],47%
same,Average Change,[2],25 mmHg
same,% Inhibition,[3],66%
same,Average Change,[3],16 mmHg
same,% Inhibition,[4],68%
same,Average Change,[4],15 mmHg
same,% Inhibition,[5],63%
same,Average Change,[5],17.5 mmHg
same,% Inhibition,[6],47%
same,Average Change,[6],25 mmHg
same,% Inhibition,[7],47%
same,Average Change,[7],25 mmHg
same,% Inhibition,[8],47%
same,Average Change,[8],25 mmHg
same,% Inhibition,[9],32%
same,Average Change,[9],32.5 mmHg
same,% Inhibition,[10],53%
same,Average Change,[10],22.5 mmHg
same,% Inhibition,[11],47%
same,Average Change,[11],25 mmHg
same,% Inhibition,[12],37%
same,Average Change,[12],30 mmHg
same,% Inhibition,[13],40%
same,Average Change,[13],28.5 mmHg
same,% Inhibition,[14],23%
same,Average Change,[14],36.5 mmHg
same,Response After AII,[1],250 mmHg
same,Change,[15],25 mmHg and 20 mmHg
same,Control Before AII,[15],225 mmHg and 230 mmHg
same,Change,[2],25 mmHg
same,Control Before AII,[16],225 mmHg and 230 mmHg
same,Response After AII,[16],250 mmHg and 255 mmHg
same,Change,[17],20 mmHg and 12 mmHg
same,Control Before AII,[17],220 mmHg and 245 mmHg
same,Response After AII,[17],240 mmHg and 257 mmHg
same,Change,[4],15 mmHg
same,Control Before AII,[18],220 mmHg and 225 mmHg
same,Response After AII,[18],235 mmHg and 240 mmHg
same,Change,[19],20 mmHg and 15 mmHg
same,Control Before AII,[19],215 mmHg and 225 mmHg
same,Response After AII,[19],235 mmHg and 240 mmHg
same,Change,[20],20 mmHg and 30 mmHg
same,Control Before AII,[20],215 mmHg and 225 mmHg
same,Response After AII,[20],235 mmHg and 255 mmHg
same,Control Before AII,[7],210 mmHg
same,Change,[21],20 mmHg and 30 mmHg
same,Response After AII,[21],230 mmHg and 240 mmHg
same,Change,[8],25 mmHg
same,Control Before AII,[22],210 mmHg and 230 mmHg
same,Response After AII,[22],235 mmHg and 255 mmHg
same,Change,[23],30 mmHg and 35 mmHg
same,Control Before AII,[23],210 mmHg and 225 mmHg
same,Response After AII,[23],240 mmHg and 260 mmHg
same,Change,[24],20 mmHg and 25 mmHg
same,Control Before AII,[24],225 mmHg and 240 mmHg
same,Response After AII,[24],245 mmHg and 265 mmHg
same,Change,[11],25 mmHg
same,Control Before AII,[25],220 mmHg and 230 mmHg
same,Response After AII,[25],245 mmHg and 255 mmHg
same,Change,[26],40 mmHg and 20 mmHg
same,Control Before AII,[26],210 mmHg and 235 mmHg
same,Response After AII,[26],250 mmHg and 255 mmHg
same,Change,[27],32 mmHg and 25 mmHg
same,Control Before AII,[27],210 mmHg and 235 mmHg
same,Response After AII,[27],242 mmHg and 260 mmHg
same,Change,[28],40 mmHg and 33 mmHg
same,Control Before AII,[28],210 mmHg and 227 mmHg
same,Response After AII,[28],250 mmHg and 260 mmHg
